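Method: 48-hour compound exposure of cells in 96-well plates, five concentrations, linear interpolation of endpoints. Here, GI50 denotes the concentration required for 50% inhibition of growth.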 Active and inactive are the calls of the source. Rule as the data show it: active = GI50 up to about 1.1 µM and inactive = higher.
Tests used:
Assay in all cases: inhibition of tumour cell growth, NCI panel, 48 h
786-0 = system: 786-0
A498 = system: A498
A549 = system: A549
ACHN = system: ACHN
BT-549 = system: BT-549
CAKI-1 = system: CAKI-1
CCRF-CEM = system: CCRF-CEM
COLO 205 = system: COLO 205
DU-145 = system: DU-145
EKVX = system: EKVX
HCC 2998 = system: HCC 2998
HCT-116 = system: HCT-116
HCT-15 = system: HCT-15
HL-60 = system: HL-60
HOP-62 = system: HOP-62
HT-29 = system: HT-29
Hs-578T = system: Hs-578T
IGROV-1 = system: IGROV-1
K562 = system: K562
KM12 = system: KM12
LOX IMVI = system: LOX IMVI
M14 = system: M14
MCF7 = system: MCF7
MDA-MB-231 = system: MDA-MB-231
MDA-MB-435 = system: MDA-MB-435
MDA-N = system: MDA-N
MOLT-4 = system: MOLT-4
Malme-3M = system: Malme-3M
NCI-H226 = system: NCI-H226
NCI-H23 = system: NCI-H23
NCI-H460 = system: NCI-H460
NCI-H522 = system: NCI-H522
NCI/ADR-RES = system: NCI/ADR-RES
OVCAR-3 = system: OVCAR-3
OVCAR-4 = system: OVCAR-4
OVCAR-5 = system: OVCAR-5
OVCAR-8 = system: OVCAR-8
PC-3 = system: PC-3
RPMI-8226 = system: RPMI-8226
RXF 393 = system: RXF 393
SF-268 = system: SF-268
SF-295 = system: SF-295
SK-MEL-28 = system: SK-MEL-28
SK-MEL-2 = system: SK-MEL-2
SK-MEL-5 = system: SK-MEL-5
SK-OV-3 = system: SK-OV-3
SN12C = system: SN12C
SNB-19 = system: SNB-19
SNB-75 = system: SNB-75
SR = system: SR
SW-620 = system: SW-620
T47D = system: T47D
TK-10 = system: TK-10
U-251 = system: U-251
UACC-257 = system: UACC-257
UACC-62 = system: UACC-62
UO-31 = system: UO-31
SF-539 = system: SF-539

## Nc1nc(=O)c(/N=N/c2ccc([As](=O)(O)O)cc2)c(N)[nH]1
786-0
  GI50: > 100 µM (inactive)
A498
  GI50: > 100 µM (inactive)
A549
  GI50: > 100 µM (inactive)
ACHN
  GI50: > 100 µM (inactive)
BT-549
  GI50: > 100 µM (inactive)
CAKI-1
  GI50: > 100 µM (inactive)
CCRF-CEM
  GI50: > 100 µM (inactive)
COLO 205
  GI50: > 100 µM (inactive)
DU-145
  GI50: > 100 µM (inactive)
EKVX
  GI50: > 100 µM (inactive)
HCC 2998
  GI50: > 100 µM (inactive)
HCT-116
  GI50: > 100 µM (inactive)
HCT-15
  GI50: > 100 µM
HL-60
  GI50: > 100 µM (inactive)
HOP-62
  GI50: > 100 µM (inactive)
HT-29
  GI50: > 100 µM (inactive)
Hs-578T
  GI50: > 100 µM (inactive)
IGROV-1
  GI50: > 100 µM (inactive)
K562
  GI50: > 100 µM (inactive)
KM12
  GI50: > 100 µM (inactive)
LOX IMVI
  GI50: > 100 µM (inactive)
M14
  GI50: > 100 µM (inactive)
MCF7
  GI50: > 100 µM (inactive)
MDA-MB-231
  GI50: > 100 µM (inactive)
MDA-MB-435
  GI50: > 100 µM (inactive)
MDA-N
  GI50: > 100 µM (inactive)
MOLT-4
  GI50: > 100 µM (inactive)
Malme-3M
  GI50: > 100 µM (inactive)
NCI-H226
  GI50: > 100 µM (inactive)
NCI-H23
  GI50: > 100 µM (inactive)
NCI-H460
  GI50: > 100 µM (inactive)
NCI-H522
  GI50: > 100 µM (inactive)
NCI/ADR-RES
  GI50: > 100 µM (inactive)
OVCAR-3
  GI50: > 100 µM (inactive)
OVCAR-4
  GI50: > 100 µM (inactive)
OVCAR-5
  GI50: > 100 µM (inactive)
OVCAR-8
  GI50: > 100 µM (inactive)
PC-3
  GI50: > 100 µM (inactive)
RPMI-8226
  GI50: > 100 µM (inactive)
RXF 393
  GI50: > 100 µM (inactive)
SF-268
  GI50: > 100 µM (inactive)
SF-295
  GI50: > 100 µM (inactive)
SK-MEL-28
  GI50: > 100 µM (inactive)
SK-MEL-2
  GI50: > 100 µM (inactive)
SK-MEL-5
  GI50: > 100 µM (inactive)
SK-OV-3
  GI50: > 100 µM (inactive)
SN12C
  GI50: > 100 µM (inactive)
SNB-19
  GI50: > 100 µM (inactive)
SNB-75
  GI50: > 100 µM (inactive)
SR
  GI50: > 100 µM (inactive)
SW-620
  GI50: > 100 µM (inactive)
T47D
  GI50: > 100 µM (inactive)
TK-10
  GI50: > 100 µM (inactive)
U-251
  GI50: > 100 µM (inactive)
UACC-257
  GI50: > 100 µM (inactive)
UACC-62
  GI50: > 100 µM (inactive)
UO-31
  GI50: > 100 µM (inactive)

## COc1ccc(-c2c(C#N)c(N)n(C3OCC(O)C(O)C3O)c(=S)c2C#N)cc1 (centres undefined)
786-0
  GI50: > 100 µM (inactive)
A498
  GI50: > 100 µM (inactive)
A549
  GI50: > 100 µM (inactive)
ACHN
  GI50: > 100 µM (inactive)
BT-549
  GI50: > 100 µM (inactive)
CAKI-1
  GI50: > 100 µM (inactive)
CCRF-CEM
  GI50: > 100 µM (inactive)
DU-145
  GI50: > 100 µM (inactive)
HCC 2998
  GI50: > 100 µM (inactive)
HCT-15
  GI50: > 100 µM
HL-60
  GI50: > 100 µM (inactive)
HOP-62
  GI50: > 100 µM (inactive)
HT-29
  GI50: > 100 µM (inactive)
Hs-578T
  GI50: > 100 µM (inactive)
IGROV-1
  GI50: > 100 µM (inactive)
K562
  GI50: > 100 µM (inactive)
KM12
  GI50: > 100 µM (inactive)
LOX IMVI
  GI50: > 100 µM (inactive)
M14
  GI50: > 100 µM (inactive)
MCF7
  GI50: > 100 µM (inactive)
MDA-MB-231
  GI50: > 100 µM (inactive)
MDA-MB-435
  GI50: > 100 µM (inactive)
MDA-N
  GI50: > 100 µM (inactive)
MOLT-4
  GI50: > 100 µM (inactive)
Malme-3M
  GI50: > 100 µM (inactive)
NCI-H226
  GI50: > 100 µM (inactive)
NCI-H23
  GI50: > 100 µM (inactive)
NCI-H460
  GI50: > 100 µM (inactive)
NCI-H522
  GI50: > 100 µM (inactive)
NCI/ADR-RES
  GI50: > 100 µM (inactive)
OVCAR-3
  GI50: > 100 µM (inactive)
OVCAR-5
  GI50: > 100 µM (inactive)
OVCAR-8
  GI50: > 100 µM (inactive)
PC-3
  GI50: > 100 µM (inactive)
RPMI-8226
  GI50: > 100 µM (inactive)
RXF 393
  GI50: > 100 µM (inactive)
SF-268
  GI50: > 100 µM (inactive)
SF-295
  GI50: > 100 µM (inactive)
SF-539
  GI50: > 100 µM (inactive)
SK-MEL-28
  GI50: > 100 µM (inactive)
SK-MEL-2
  GI50: 21.6 µM (inactive)
SK-MEL-5
  GI50: > 100 µM (inactive)
SK-OV-3
  GI50: > 100 µM (inactive)
SN12C
  GI50: > 100 µM (inactive)
SNB-19
  GI50: > 100 µM (inactive)
SNB-75
  GI50: > 100 µM (inactive)
SR
  GI50: > 100 µM (inactive)
SW-620
  GI50: > 100 µM (inactive)
T47D
  GI50: 95.9 µM (inactive)
TK-10
  GI50: > 100 µM (inactive)
UACC-62
  GI50: > 100 µM (inactive)
UO-31
  GI50: > 100 µM (inactive)

— ChEMBL document CHEMBL1201862, “PubChem BioAssay data set” (2004)
